According to the NIST ThermoML archive (doi:10.1021/je5008372):
Numbers after ± are expanded uncertainties.

Tests used:
[1] = mn = molality of the nth substance listed, in mol/kg; conditions: 86.8 kPa, Liquid; for viscosity: Capillary tube (Ostwald / Ubbelohde) method; for speed of sound: Sing-around technique in a fixed-path interferometer; for mass density: Vibrating tube method
[2] = refractive index (Na D-line) (dimensionless); mn = molality of the nth substance listed, in mol/kg; conditions: 86.8 kPa, Liquid, Standard Abbe refractometry

CC(=O)Oc1ccccc1C(=O)O [2-acetoxybenzoic acid] + CC#N
Conditions	mass density, [1] [kg/m3]	refractive index, [2]	speed of sound, [1] [m/s]	viscosity, [1] [mPa·s]
288.15 K, m1 = 0.0402	789.756 ± 0.17	1.3467 ± 0.004	1319.9 ± 1.2	0.394 ± 0.01
288.15 K, m1 = 0.0834	792.285 ± 0.16	1.3476 ± 0.004	1320.3 ± 1.2	0.398 ± 0.01
288.15 K, m1 = 0.11	793.822 ± 0.16	1.3483 ± 0.004	1320.6 ± 1.2	0.402 ± 0.01
288.15 K, m1 = 0.1394	795.495 ± 0.16	1.349 ± 0.004	1320.8 ± 1.2	0.405 ± 0.01
288.15 K, m1 = 0.1708	797.242 ± 0.16	1.3498 ± 0.004	1321.1 ± 1.2	0.408 ± 0.01
288.15 K, m1 = 0.2076	799.277 ± 0.16	1.3505 ± 0.004	1321.4 ± 1.2	0.412 ± 0.01
288.15 K, m1 = 0.2453	801.312 ± 0.16	1.3513 ± 0.004	1321.8 ± 1.2	0.416 ± 0.01
288.15 K, m1 = 0.2705	802.661 ± 0.16	1.3519 ± 0.004	1322 ± 1.2	0.419 ± 0.01
288.15 K, m1 = 0.3006	804.272 ± 0.16	1.3527 ± 0.004	1322.2 ± 1.2	0.422 ± 0.01
298.15 K, m1 = 0.0402	778.992 ± 0.17	1.3422 ± 0.004	1279.3 ± 1.2	0.349 ± 0.01
298.15 K, m1 = 0.0834	781.508 ± 0.17	1.3431 ± 0.004	1279.7 ± 1.2	0.353 ± 0.01
298.15 K, m1 = 0.11	783.035 ± 0.17	1.3439 ± 0.004	1279.9 ± 1.2	0.355 ± 0.01
298.15 K, m1 = 0.1394	784.705 ± 0.17	1.3446 ± 0.004	1280.2 ± 1.2	0.358 ± 0.01
298.15 K, m1 = 0.1708	786.446 ± 0.17	1.3453 ± 0.004	1280.4 ± 1.2	0.362 ± 0.01
298.15 K, m1 = 0.2076	788.483 ± 0.16	1.3462 ± 0.004	1280.7 ± 1.2	0.365 ± 0.01
298.15 K, m1 = 0.2453	790.515 ± 0.16	1.347 ± 0.004	1281 ± 1.2	0.369 ± 0.01
298.15 K, m1 = 0.2705	791.87 ± 0.16	1.3477 ± 0.004	1281.2 ± 1.2	0.371 ± 0.01
298.15 K, m1 = 0.3006	793.487 ± 0.16	1.3484 ± 0.004	1281.5 ± 1.2	0.375 ± 0.01
308.15 K, m1 = 0.0402	768.176 ± 0.17	1.3378 ± 0.004	1239 ± 1.2	0.316 ± 0.01
308.15 K, m1 = 0.0834	770.675 ± 0.17	1.3388 ± 0.004	1239.3 ± 1.2	0.319 ± 0.01
308.15 K, m1 = 0.11	772.198 ± 0.17	1.3397 ± 0.004	1239.5 ± 1.2	0.322 ± 0.01
308.15 K, m1 = 0.1394	773.857 ± 0.17	1.3404 ± 0.004	1239.7 ± 1.2	0.325 ± 0.01
308.15 K, m1 = 0.1708	775.597 ± 0.17	1.3412 ± 0.004	1240 ± 1.2	0.328 ± 0.01
308.15 K, m1 = 0.2076	777.624 ± 0.17	1.3423 ± 0.004	1240.3 ± 1.2	0.331 ± 0.01
308.15 K, m1 = 0.2453	779.658 ± 0.17	1.3431 ± 0.004	1240.5 ± 1.2	0.334 ± 0.01
308.15 K, m1 = 0.2705	781.016 ± 0.17	1.3438 ± 0.004	1240.8 ± 1.2	0.337 ± 0.01
308.15 K, m1 = 0.3006	782.624 ± 0.17	1.3446 ± 0.004	1241 ± 1.2	0.34 ± 0.01
318.15 K, m1 = 0.0402	757.205 ± 0.18	1.3333 ± 0.004	1198.8 ± 1.2	0.292 ± 0.01
318.15 K, m1 = 0.0834	759.697 ± 0.18	1.3345 ± 0.004	1199.2 ± 1.2	0.295 ± 0.01
318.15 K, m1 = 0.11	761.21 ± 0.18	1.3352 ± 0.004	1199.3 ± 1.2	0.297 ± 0.01
318.15 K, m1 = 0.1394	762.869 ± 0.18	1.3359 ± 0.004	1199.5 ± 1.2	0.3 ± 0.01
318.15 K, m1 = 0.1708	764.615 ± 0.17	1.3367 ± 0.004	1199.7 ± 1.2	0.303 ± 0.01
318.15 K, m1 = 0.2076	766.635 ± 0.17	1.3377 ± 0.004	1199.9 ± 1.2	0.306 ± 0.01
318.15 K, m1 = 0.2453	768.667 ± 0.17	1.3388 ± 0.004	1200.2 ± 1.2	0.309 ± 0.01
318.15 K, m1 = 0.2705	770.017 ± 0.17	1.3395 ± 0.004	1200.4 ± 1.2	0.311 ± 0.01
318.15 K, m1 = 0.3006	771.63 ± 0.17	1.3403 ± 0.004	1200.7 ± 1.2	0.314 ± 0.01
